One series concerns the target T1, STS (Homo sapiens, UniProt P08842).
T1 sequence (P08842 22-583): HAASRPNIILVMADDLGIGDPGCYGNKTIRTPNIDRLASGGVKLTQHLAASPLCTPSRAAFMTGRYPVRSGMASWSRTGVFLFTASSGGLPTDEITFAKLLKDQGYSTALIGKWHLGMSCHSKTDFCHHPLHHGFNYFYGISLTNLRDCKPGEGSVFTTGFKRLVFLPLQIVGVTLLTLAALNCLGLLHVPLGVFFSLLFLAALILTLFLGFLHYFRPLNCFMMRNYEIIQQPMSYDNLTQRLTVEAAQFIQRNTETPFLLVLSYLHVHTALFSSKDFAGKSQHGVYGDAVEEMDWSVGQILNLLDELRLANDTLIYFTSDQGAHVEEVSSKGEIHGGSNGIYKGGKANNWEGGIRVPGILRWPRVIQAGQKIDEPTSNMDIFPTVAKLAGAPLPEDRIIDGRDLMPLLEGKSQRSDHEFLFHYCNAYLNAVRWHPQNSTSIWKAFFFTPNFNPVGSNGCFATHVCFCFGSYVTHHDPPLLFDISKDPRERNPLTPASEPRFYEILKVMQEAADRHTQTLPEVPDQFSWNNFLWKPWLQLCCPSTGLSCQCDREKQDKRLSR
Description: Plate assay, % inhibition.

A further series concerns T47D cell. The series can be described thus: T47D cell growth, % inhibition. The series is classed as cell-based. To be noted: Homo sapiens.
In another series the test system is T47D cells. Description: IC50 in T47D cells (table footnote). Format: cell-based. To be noted: Homo sapiens. The procedure:
The STS inhibition provided by the compounds was determined in accordance with a plate assay and the Protocols set out herein.

The target of another series is T2, steroid sulphatase (Homo sapiens, UniProt P08842).
T2 construct: Sulphatase-positive human placenta from normal term pregnancies are thoroughly minced with scissors; from tissue; host or cells: human term placenta (2000 g supernatant / microsomes)
Description: Inhibition of steroid sulphatase activity in placental microsomes (Protocol 2). Format: biochemical.

The conditions of series [1]: in vivo; cited from earlier work.
The target of the next series is T3, E1-STS enzyme (Homo sapiens, UniProt P08842).
T3 sequence (P08842 22-583): T1 sequence (P08842 22-583)
To be noted: cited from earlier work.

For series [2] the following is noted: rats; cited from earlier work.
For series [3] the following is noted: rats, higher than that of estradiol; cited from earlier work.
[4] abbreviates: read-out: Plate assay % inhibition.
The mark [5] stands for this setting: read-out: Placental Microsomes, % inhibition.

Where two headings read alike, the source gives them in different places.

Description for steroid sulphatase: Inhibition of Steroid Sulphatase Activity in Placental Microsomes
Sulphatase-positive human placenta from normal term pregnancies are thoroughly minced with scissors and washed once with cold phosphate buffer (pH 7.4, 50 mM) then re-suspended in cold phosphate buffer (5 ml/g tissue). Homogenisation is accomplished with an Ultra-Turrax homogeniser, using three 10 second bursts separated by 2 minute cooling periods in ice. Nuclei and cell debris are removed by centrifuging (4° C.) at 2000 g for 30 minutes and portions (2 ml) of the supernatant are stored at 20° C.
Incubations (1 ml) are carried out using a protein concentration of 100 mg/ml, substrate concentration of 20 mM [6,7–3H]oestrone-3-sulphate (specific activity 60 Ci/mmol from New England Nuclear, Boston, Mass., U.S.A.) and an incubation time of 20 minutes at 37° C. If necessary eight concentrations of compounds are employed: 0 (i.e. control); 0.05 mM; 0.1 mM; 0.2 mM; 0.4 mM; 0.6 mM; 0.8 mM; 1.0 mM. After incubation each sample is cooled and the medium (1 ml) was pipetted into separate tubes containing [14C]oestrone (7×10^3 dpm) (specific activity 97 Ci/mmol from Amersham International Radiochemical Centre, Amersham, U.K.). The mixture is shaken thoroughly for 30 seconds with toluene (5 ml). […] A portion (2 ml) of the organic phase was removed, evaporated and the 3H and 14C content of the residue determined by scintillation spectrometry. The mass of oestrone-3-sulphate hydrolysed is calculated from the 3H counts obtained (corrected for the volumes of the medium and organic phase used, and for recovery of [14C]oestrone added) and the specific activity of the substrate.

A word on the inhibition: it is the relative decrease from the control value, in per cent. In the case of `CC1=C2CCC3c4ccc(OS(N)(=O)=O)cc4CCC3C2CC1` (stereo not drawn) [BLE00086], on STS (setting [4]), the inhibition at 0.1 µM was 8%, the inhibition at 1 µM worked out at 3% and the inhibition at 10 µM worked out at 14%. The inhibition at 10 µM with T47D cell was found to be 93.2%.

Usually IC50 stands for the concentration that gives 50% inhibition. A high value points to a need for much substance. The compound `CSc1cc2c(cc1OS(N)(=O)=O)CCC1C2CCC2(C)C(=O)CCC12` (stereo not drawn) [Compound 7] gave an IC50 with T47D cells of 2.5 nM. The inhibition at 0.1 µM on STS (0.1 μM, read-out: Plate Assay, % inhibition) is 3%. The inhibition at 1 µM on STS (1 μM, read-out: Plate Assay, % inhibition) was found to be 53%. The inhibition at 10 µM on STS (10 μM, read-out: Plate Assay, % inhibition) stood at 55%. For the same compound, the inhibition at 0.01 µM at steroid sulphatase (10 nM, read-out: Placental Microsomes, % inhibition) is 5.4%.

For `C[C@]12CC[C@@H]3c4ccc(OS(=O)(=O)O)cc4CC[C@H]3[C@@H]1CCC2=O` [Compound E1S, oestrone sulphate], in series [1], the half-life in blood is 10 to 12 h.

In the case of `CC12CCC3c4ccc(OS(N)(=O)=O)cc4CCC3C1CCC2=O` (stereo not drawn) [EMATE, oestrone-3-sulphamate, reference compound], the “mode of E1-STS inhibition” value at E1-STS enzyme is “time- and concentration-dependent manner”. For the same compound, the memory effect entry in series [2] was “memory enhancing effect”. In addition, at steroid sulphatase, the IC50 came out at 18 nM. Further, the “Placental Microsomes % inhibition” value at steroid sulphatase (human) is recorded as 97.8%. For the same compound, at steroid sulphatase (setting [5]), the inhibition at 0.01 µM amounted to 27.3%, the inhibition at 0.1 µM came to 85.1% and the inhibition at 10 µM stood at 99.5%. The “oral uterotrophic activity relative to estradiol” value in series [3] is 100 times.

(Values after patent publication US7067503B2, “17-aryl linker derivatised estrogen 3-sulphamates as inhibitors of steroid sulphatase” (priority 2000, dated 2006).)
